Experimental data taken from patent US10213451B2, “Methods and compounds for modulating the secretion or expression of adhesion proteins or angiopoietins of cells” (PACIFIC ARROW LIMITED, priority 2004, dated 2019).
≈ marks a conversion by molar mass, not a printed value. Read-outs that look alike come from different tables or passages of the source.

Legend:
(Mouth) KB cells = test: MTT assay KB; assay type: cell-based; details: Homo sapiens
[1] = tested on: ES2 cells inoculated into peritoneal cavity; test: Nodule formation in peritoneal cavity, ES2; assay type: in vivo, nu/nu mice; details: ES2, 0.25 mg/kg i.p. daily 5 days per week for two-three weeks
Text: The relationship between the nodule formation and timelines during tumor progression are established. Usually, 4 to 6 nodules are formed during the entire period of tumor progression in this system (Lander Jr., et al., 2005). We start the drug-treatment at times equivalent to 20% and 50% of full tumor progression. At these times, the number of nodule is less and the size (weight) of the nodules is smaller. At the end of the drug-treatment, animals are euthanized and number of tumor nodules is determined and the tumor size (mass) is weighted.
Animals: 40 nu/nu mice are used per experiment.
2 groups of mice (20 each) (i) Drug-treatment start at time equivalent to 20% of full tumor progression (or on 4 days after tumor inoculation) (ii) Drug-treatment starts at time equivalent to 50% of full tumor progression (or on 10 days after tumor inoculation). On the day of starting drug-treatment, half of the animals (10) will be scarified and the number and weight of nodules will measured.
Drug-Treatments: Animals are administered daily for 5 days per week for two—three weeks. Dose: 0.25 mg/kg, through i.p. route.

[2] = tested on: Fibronectin secretion from Hey8A (human ovarian carcinoma cells); test: Fibronectin secretion (Western blot), Hey8A cells; assay type: cell-based; details: 10 ug/ml, 24 hours
Method: Inhibition of Fibronectin secretion is physiological and the determination of its quantity is based on the following criteria: • 1. Fibronectin is secreted from viable cells. Only cell with over 85% viable cells after drug-treatment are employed in these experiments. The viable cells were determined by MTT assay. • 2. For comparison, the immuno-band intensity from each samples are normalized with cell mass. The cell mass was determined by the MTT assay and is assigned as a MTT unit for each cell sample.
Cells: Hey8A (human ovarian carcinoma cells) were grew in RPMI 1640 medium to 90% confluent before drug-treatment. Drug-treatment: Cells cultures were replaced with fresh RPMI medium containing either DMSO (as control) [D1]; or Xanifolia-Y (10, 15, or 20 ug/ml) [Y1, Y2 and Y3]. Aliquot of medium was removed as 0 hours sample and no FN was detected at this time. After 24 hours, aliquot of culture medium was taken out for Fibronectin determination (Western blot method). Cell viability at 24 hours was determined by MTT assay. Cultures were replaced with RPMI medium (5 ml) with MTT and incubated for an hour. The formation of formazan was dissolved in DMSO and OD at 570 nm was measured.
Western Blot: Spent culture medium (0.6 ml) was mixed with SDS sample buffer (0.2 ml), boiled for 3 minutes before loading to SDS gel. Samples (60 ul/lane) were applied to a 6% SDS gel and electrophoresis was conducted with 100 volts for 2 hours. Protein was transferred to a nitrocellulose paper electrophoretically (30 min at 100 volts). The Western blot was incubated with the first antibody (mouse anti-FN, specific to human FN, SIGMA F0916) and second antibody (Anti-mouse IgG AP conjugated, Promega S3721). The immunobands were developed with BCIP/NBT color development system (Promega S3771).

skin cancer cells = test: MTT assay, growth of skin cancer cells; assay type: cell-based; details: Homo sapiens
Method: (§1) Cells. Human cancer cell lines were obtained from American Type Culture Collection: HTB-9 (bladder), HeLa-S3 (cervix), DU145 (prostate), H460 (lung), MCF-7 (breast), K562 (leukocytes), HCT116 (colon), HepG2 (liver), U2OS (bone), T98G (brain), SK-MEL-5 (Skin) and OVCAR-3 (ovary). The cells were grown in following culture media: HeLa-53, DU145, MCF-7, Hep-G2 and T98G are in MEN (Earle's salts); HTB-9, H460, K562 and OVCAR-3 in RPMI-1640; HCT-116 and U2OS in McCoy-5A. They are supplemented with 10% fetal calf serum, glutamine and antibiotics, and incubated in an incubator with 5% CO2 humidified at 37° C.
(§2) MTT Assay. The procedure for MTT assay followed the method described by Carmichael et al. (1987) with modifications. […] The formazan (product of the reduction of tetrazolium by viable cells) formed and was dissolved with DMSO and the O.D. at 490 nm, and was measured by an ELISA reader. The MTT level of the cells before drug-treatment was also measured (T0). The % cell-growth (% G) is calculated as: % G=(TD−T0/TC−T0)×100(1), where TC or TD represents O.D. readings of control or drug-treated cells. When T0>TD, then the cytotoxicity (LC) expressed as % of the control is calculated as: % LC=(TD−T0/T0)×100(2).

[3] = tested on: OVCAR3 cells (from ovary); test: MTT assay OVCAR3; assay type: cell-based; details: Homo sapiens, OVCAR-3; OVCAR3, Serous
Method: as §1
as §2, with “Assay.” for “Assay. The procedure for MTT assay followed the method described by Carmichael et al. (1987) with modifications.”
Majority of ovarian cancers arise from the surface epithelium of ovary, most of them belong to the histological subtypes of clear cell and serous carcinoma. […] The inhibition activity exerted by Xanifolia-Y was determined with MTT assay.

OVCA 432 = test: MTT assay OVCA 432; assay type: cell-based; details: Homo sapiens, OVCA432; OVCA 432, Serous
Method: (§3) Majority of ovarian cancers arise from the surface epithelium of ovary, most of them belong to the histological subtypes of clear cell and serous carcinoma. We obtained 10 more human ovarian carcinoma cell-lines of these histological subtypes for these studies. The inhibition activity exerted by Xanifolia-Y was determined with MTT assay.

[4] = tested on: human ovarian cancer cell lines; test: MTT assay, additional human ovarian cancer cell lines; assay type: cell-based; details: 10 additional human ovarian cancer cell lines
Method: as §3

TOV-21G = test: MTT assay TOV-21G; assay type: cell-based; details: Homo sapiens, TOV21G, Clear cell
Method: as §3

Caov 3 = test: MTT assay Caov 3; assay type: cell-based; details: Homo sapiens; Caov 3, Serous
Method: as §3

OVCA 433 = test: MTT assay OVCA 433; assay type: cell-based; details: Homo sapiens, OVCA433; OVCA 433, Serous
Method: as §3

With C/C=C(/C)C(=O)O[C@H]1[C@H](OC(=O)/C(C)=C\C)[C@@]2(CO)C(CC1(C)C)C1=CCC3[C@@]4(C)CC[C@H](O[C@@H]5OC(C(=O)O)[C@@H](O)C(O[C@@H]6O[C@@H](CO)C(O)C6O)C5O[C@@H]5OC(CO)[C@H](O)C(O)C5O)C(C)(C)C4CC[C@@]3(C)[C@]1(C)[C@@H](O)[C@H]2O (stereo partly drawn) [Xanifolia-Y, 3-O-[β-D-galactopyranosyl (1→2)]-α-L-arabinofuranosy (1→3)-β-D-glucuronopyranosyl-21,22-O-diangeloyl-3β, 15α, 16α, 21β, 22α, 28-hexahydroxyolean-12-ene] the IC50 ((Mouth) KB cells) was 6 µg/mL (≈ 5.26 µM), the “numbers of tumor nodules” value [1] was “less” and the size of tumor [1] was “smaller”. The “Fibronectin secreted as compared with the DMSO control” value [2] was 31%, the “average band intensity after corrected with the MTT unit” value [2] was 366 and the inhibition at 10 µg/mL ([2]; Homo sapiens, Ovarian carcinoma cell) was 69%. The IC50 (skin cancer cells; FIG. 3C, purified compound, read-out: IC50, inhibition of growth of skin cancer cells) was 0.23 µg/mL (≈ 0.202 µM), the IC50 (skin cancer cells; read-out: IC50 on skin cells) was 12 µg/mL (≈ 10.5 µM) and the IC50 [3] was 2.2 µM. It also gave an IC50 (OVCA 432) of 4.4 µM, an IC50 [4] of 2 to 12 µM and an IC50 ([4]; Homo sapiens) of 2 to 10 µM. The IC50 (TOV-21G) was 2.2 µM, the IC50 (Caov 3) was 7 µM and the IC50 (OVCA 433) was 8.8 µM.
